These results are taken from article PMC9732823, “Discovery of Dual Aβ/Tau Inhibitors and Evaluation of Their Therapeutic Effect on a Drosophila Model of Alzheimer’s Disease” (ACS Chemical Neuroscience, 2022).

Data set [1] concerns cerebellar granule neurons (CGNs). Kind of data set: Neurotoxicity on primary cultures of cerebellar granule neurons (nuclei counting after Hoechst staining). The following applies: differentiated CGNs, 24 h, percentage of healthy nuclei on total nuclei, mean ± SEM of three experiments.
The next data set deals with T1, Tau protein (Homo sapiens, UniProt P10636).
T1 construct: expressed in transfected cells; host or cells: Escherichia coli BL21 (DE3) with pTARA and pRKT42
T1 sequence (P10636 1-441 isoform P10636-8): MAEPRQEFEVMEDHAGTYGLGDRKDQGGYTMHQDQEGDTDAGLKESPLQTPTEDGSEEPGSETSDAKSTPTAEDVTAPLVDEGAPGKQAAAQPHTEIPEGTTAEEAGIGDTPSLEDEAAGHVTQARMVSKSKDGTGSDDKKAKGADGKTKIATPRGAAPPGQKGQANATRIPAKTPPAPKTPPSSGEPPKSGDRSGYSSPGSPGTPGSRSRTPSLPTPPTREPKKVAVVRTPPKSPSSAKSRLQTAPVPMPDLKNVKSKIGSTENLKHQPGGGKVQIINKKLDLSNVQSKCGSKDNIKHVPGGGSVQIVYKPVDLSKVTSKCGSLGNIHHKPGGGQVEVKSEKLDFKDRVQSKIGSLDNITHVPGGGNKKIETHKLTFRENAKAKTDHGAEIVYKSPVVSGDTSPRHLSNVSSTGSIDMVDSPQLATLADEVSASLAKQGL
Kind of data set: Inhibition of Tau aggregation in intact E. coli cells overexpressing Tau (ThS fluorescence). It counts as cell-based, Escherichia coli. The conditions noted are these: for % inhibition Tau aggregation @ 10 μM: intact E. coli cells, compound 10 μM, mean ± SEM of four independent experiments; for inhibition at 10 µM: read-out: % inhibition Tau aggregation @ 10 μM, intact E. coli cells, compound 10 μM, mean ± SEM of four independent experiments. An excerpt: (§1) As it would have been labor-intensive and expensive to screen such a number of compounds in two separate antiaggregating studies using recombinant Aβ and Tau, we turned our attention to a simple model of protein aggregation, namely, the intact Escherichia coli (E. coli) cells overexpressing Aβ42 and Tau proteins.[28],[29] Building on the fact that inclusion bodies produced by overexpression of these proteins in E. coli mainly consist of fibrillar aggregates, this simple screening method uses bacteria as an in vivo reservoir for tracking the inhibition of amyloid-type protein aggregation in real time, using the amyloid dye thioflavin S (ThS). Of note, this screening has already been used for the evaluation of libraries of antiaggregating compounds.[28]−[38]
E. coli BL21 (DE3) competent cells were transformed with pTARA containing the RNA-polymerase gen of the T7 phage (T7RP) under the control of the promoter PBAD. E. coli BL21 (DE3) with pTARA competent cells were transformed with the pRKT42 vector encoding four repeats of Tau protein in two inserts. For overnight culture preparation, 10 mL of M9 medium containing 0.5% of glucose, 100 μg·mL^–1 ampicillin, and 12.5 μg·mL^–1 chloramphenicol were inoculated with a colony of BL21 (DE3) bearing the plasmids to be expressed at 37 °C. For expression of Tau protein, the required volume of overnight culture to obtain 1:500 dilution was added to fresh M9 minimal medium containing 0.5% of glucose, 50 μg·mL^–1 ampicillin, 12.5 μg·mL^–1 chloramphenicol, and 25 μM ThS. The bacterial culture was grown at 37 °C and 250 rpm. When the cell density reached ABS600 nm= 0.6, an amount of 980 μL of culture was transferred into Eppendorf tubes of 1.5 mL with 10 μL of each compound to be tested in DMSO and 10 μL of arabinose at 25%. The final concentration of the drug was fixed at 10 μM. The samples were grown overnight at 37 °C and 1400 rpm using a thermomixer (Eppendorf, Hamburg, Germany). As the control of maximal amyloid presence, the same amount of DMSO without the drug was added to the sample. In parallel, noninduced samples (in the absence of arabinose) were also prepared and used as controls for the amyloid absence. In addition, the absorbance at 600 nm of the samples was checked to assess the potential intrinsic toxicity of the compounds and to confirm the correct bacterial growth.
(§2) ThS (T1892) and other chemical reagents were purchased from Sigma (St. Louis, MO). ThS stock solution (25 mM) was prepared in double-distilled water purified through a Milli-Q system (Millipore). For the fluorescence assay, the ThS spectra were measured on an AMINCO-Bowman series 2 luminescence spectrophotometer (Aminco-Bowman AB2, SLM Aminco, Rochester, NY) from 460 to 600 nm at 25 °C using an excitation wavelength of 440 nm and slit widths of 4 nm. The emission at 485 nm (fluorescence peak of ThS in the presence of amyloids) was recorded. To normalize the ThS fluorescence as a function of the bacterial concentration, ABS600nm was obtained using a Shimadzu UV-2401 PC UV–Vis spectrophotometer (Shimadzu, Japan). Note that the fluorescence normalization was carried out considering as 100% the ThS fluorescence of the bacterial cells expressing the peptide or protein in the absence of the drug and 0% the ThS fluorescence of the bacterial cells nonexpressing the peptide or protein.

A short description of data set [2]: Compound stability in the PAMPA buffer solution. Format: in vitro ADME. The conditions noted are these: after 6h, donor and acceptor wells. An excerpt:
Table S1. Prediction of BBB penetration of the studied compounds expressed as Pe ± SEM (n=3)
(In PAMPA a lipid-coated filter parts donor from acceptor wells.)

The next data set addresses T2, Aβ42 (Homo sapiens, UniProt P05067).
T2 construct: expressed in transfected cells; host or cells: Escherichia coli BL21 (DE3), pET28a
Put plainly: Inhibition of Aβ42 aggregation in intact E. coli cells overexpressing Aβ42 (ThS fluorescence). It counts as cell-based, Escherichia coli. The conditions noted are these: for % inhibition Aβ42 aggregation @ 10 μM: intact E. coli cells, compound 10 μM, mean ± SEM of four independent experiments; for inhibition at 10 µM: read-out: % inhibition Aβ42 aggregation @ 10 μM, intact E. coli cells, compound 10 μM, mean ± SEM of four independent experiments.
From the text: as §1
Escherichia coli competent cells BL21 (DE3) were transformed with the pET28a vector (Novagen, Inc., Madison, WI) carrying the DNA sequence of Aβ42. Because of the addition of the initiation codon ATG in front of both genes, the overexpressed peptide contains an additional methionine residue at its N terminus. For overnight culture preparation, an amount of 10 mL of M9 minimal medium containing 50 μg·mL^–1 kanamycin was inoculated with a colony of BL21 (DE3) bearing the plasmid to be expressed at 37 °C. For expression of the Aβ42 peptide, the required volume of overnight culture to obtain 1:500 dilution was added into fresh M9 minimal medium containing 50 μg·mL^–1 kanamycin and 250 μM ThS. The bacterial culture was grown at 37 °C and 250 rpm. When the cell density reached ABS600 nm = 0.6, an amount of 980 μL of culture was transferred into Eppendorf tubes of 1.5 mL with 10 μL of each compound to be tested in DMSO and 10 μL of isopropyl 1-thio-β-D-galactopyranoside (IPTG) at 100 mM. The final concentration of the drug was fixed at 10 μM. The samples were grown overnight at 37 °C and 1400 rpm using a thermomixer (Eppendorf, Hamburg, Germany). As the control of the amyloid presence (maximal amyloid presence), the same amount of DMSO without the drug was added to the sample. In parallel, noninduced samples (in the absence of IPTG) were also prepared and used as controls of the non-amyloid presence. In addition, the absorbance at 600 nm of the samples was checked to assess the potential intrinsic toxicity of the compounds and to confirm the correct bacterial growth.
as §2

A short description of the next data set: PAMPA-BBB assay. The following applies: for Papp: pH 7.4; for BBB permeability prediction: PAMPA-BBB. An excerpt: Thus, to reduce attrition in the development process, the evaluation of BBB penetration at a very early drug discovery stage is of crucial importance. In light of this, the ability of the previously selected compounds to cross the BBB was predicted by a parallel artificial membrane permeability assay (PAMPA)-BBB,[41] a high-throughput technique widely used as an indicator of a molecule’s passive diffusion through the BBB. Six commercially available drugs were used to validate the assay.
PAMPA (the parallel artificial membrane permeability assay) is a high-throughput screening tool applicable for the prediction of the passive transport of potential drugs across the BBB.[41] In this study, it has been used as a non-cell-based in vitro assay carried out in a coated 96-well membrane filter. The filter membrane of the donor plate was coated with PBL (Polar Brain Lipid, Avanti) in dodecane (4 μL of 20 mg/mL PBL in dodecane) and the acceptor well was filled with 300 μL of phosphate buffer saline, (PBS pH 7.4; VA). The tested compounds were dissolved first in DMSO and then diluted with PBS pH 7.4 to reach the final concentrations of 50–500 μM in the donor well. […] Then, 300 μL of the donor solution (VD) was added to the donor wells and the donor filter plate was carefully put on the acceptor plate so that the coated membrane was “in touch” with both donor solution and acceptor buffer. In principle, the test compound diffuses from the donor well through the polar brain lipid membrane (area = 0.28 cm^2) to the acceptor well. The concentrations of the tested compound in both donor and the acceptor wells were assessed after 3, 4, 5, and 6 h of incubation in quadruplicate using a UV plate reader, Synergy HT (Biotek) at the maximum absorption wavelength of each compound (n=3). In addition to that, solution of the theoretical compound concentration, simulating the equilibrium state established if the membrane were ideally permeable, was prepared and assessed as well. The concentrations of the compounds in the donor and acceptor wells and the equilibrium concentration were calculated from the standard curve and expressed as the permeability (Pe) according to the equation[41] [drawing 1] where [drawing 2]

The mark [3] stands for this setting: PAMPA-BBB penetration estimation.

T2 sequence (P05067 672-713 limits assumed): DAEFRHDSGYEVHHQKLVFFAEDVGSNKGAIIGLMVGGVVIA

`CCOC(=O)CN1C(=O)S/C(=C\c2ccc(/C=C3\SC(=O)N(CC(=O)OCC)C3=O)cc2)C1=O` [Compound 7, Diethyl 2,2′-((5Z,5′Z)-(1,4-phenylenebis(methanylylidene))bis(2,4-dioxothiazolidin-3-yl-5-ylidene))diacetate]: the “% survival neurotoxicity @ 10 μM” value in data set [1] turned out to be 90.1 ± 2.1%. For the same compound, at Tau protein, the “% inhibition Tau aggregation @ 10 μM” value was 30.6 ± 3.6% and the inhibition (as a rule, the relative decrease from the control value, in per cent) at 10 µM was found to be 30%. The “degradation in the PAMPA buffer solution” value in data set [2] is under 20%. For the same compound, on Aβ42, the “% inhibition Aβ42 aggregation @ 10 μM” value was found to be 40.7 ± 4.4% and the inhibition at 10 µM came to 40%. Besides, the Papp (commonly the rate of passage across a membrane or cell layer, normalised by area and donor concentration) in the data set “PAMPA-BBB assay” (PAMPA) was found to be 11.4 ± 0.49 ×10⁻⁶ cm/s. The “BBB permeability prediction” value in “PAMPA-BBB assay” was “predicted to passively diffuse across the BBB”. The “CNS (+/-)” value in the data set “PAMPA-BBB assay” (setting [3]) is on record as “CNS + (CNS + (high BBB permeation predicted): Pe (×10-6 cm s-1) > 4.0)”.

As to `CCOC(=O)CN1C(=O)S/C(=C\c2ccc3[nH]c4ccc(/C=C5\SC(=O)N(CC(=O)OCC)C5=O)cc4c3c2)C1=O` [Compound 10, Diethyl 2,2′-((5Z,5′Z)-((9H-carbazole-3,6-diyl)bis(methanylylidene))bis(2,4-dioxothiazolidin-3-yl-5-ylidene))diacetate], in data set [1], the “% survival neurotoxicity @ 10 μM” value was found to be 84.2 ± 6.3%. Also, at Tau protein, the “% inhibition Tau aggregation @ 10 μM” value came to 37.7 ± 4.1% and the inhibition at 10 µM lay in the range of 30 to 40%. Besides, in data set [2], the “degradation in the PAMPA buffer solution” value is under 20%. In addition, at Aβ42, the “% inhibition Aβ42 aggregation @ 10 μM” value came out at 31.9 ± 3.0% and the inhibition at 10 µM was 30 to 40%. Moreover, the apparent permeability (Papp) in “PAMPA-BBB assay” (PAMPA) was 5.79 ± 1.16 ×10⁻⁶ cm/s. In the data set “PAMPA-BBB assay”, the “BBB permeability prediction” value is reported as “predicted to passively diffuse across the BBB”. Also, the “CNS (+/-)” value in “PAMPA-BBB assay” (setting [3]) is recorded as “CNS + (CNS + (high BBB permeation predicted): Pe (×10-6 cm s-1) > 4.0)”.

Consider `O=C(O)CN1C(=O)S/C(=C\c2ccc3[nH]c4ccc(/C=C5\SC(=O)N(CC(=O)O)C5=O)cc4c3c2)C1=O` [Compound 16, 2,2′-((5Z,5′Z)-((9H^–Carbazole-3,6-diyl)bis(methanylylidene))bis(2,4-dioxothiazolidin-3-yl-5-ylidene))diacetic acid], for which, in data set [1], the “% survival neurotoxicity @ 10 μM” value came out at 90.0 ± 2.8%. On Tau protein, the “% inhibition Tau aggregation @ 10 μM” value was 37.9 ± 3.5% and the inhibition at 10 µM lay within 30 to 40%. Moreover, on Aβ42, the “% inhibition Aβ42 aggregation @ 10 μM” value turned out to be 32.1 ± 3.1% and the inhibition at 10 µM fell in the range of 30 to 40%. In addition, the apparent permeability coefficient (Papp) in the data set “PAMPA-BBB assay” (PAMPA) is 0.55 ± 0.12 ×10⁻⁶ cm/s.

`CC1(C)c2cc(/C=C3\SC(=O)N(CC(=O)O)C3=O)ccc2-c2ccc(/C=C3\SC(=O)N(CC(=O)O)C3=O)cc21` [Compound 17, 2,2′-((5Z,5′Z)-((9,9-Dimethyl-9H-fluorene-2,7-diyl)bis(methanylylidene))bis(2,4-dioxothiazolidin-3-yl-5-ylidene))diacetic acid]: the “% survival neurotoxicity @ 10 μM” value in data set [1] worked out at 89.3 ± 2.3%. Also, the inhibition at 10 µM at Tau protein and at Aβ42 was over 50% throughout. Moreover, in the data set “PAMPA-BBB assay” (PAMPA), the Papp was 0.88 ± 0.2 ×10⁻⁶ cm/s.

With `CCN(C)C(=O)Oc1cccc([C@H](C)N(C)C)c1` [Rivastigmine, reference compound], the “CNS (+/-)” value in “PAMPA-BBB assay” (PAMPA) is reported as “CNS + (key: CNS + (high BBB permeation predicted): Pe (×10-6 cm s-1) > 4.0; CNS - (low BBB permeation predicted): Pe (×10-6 cm s-1) < 2.0; CNS +/- (uncertain BBB permeation): Pe (×10-6 cm s-1) from 4.0 to 2.0)”.
